From US4532255A, “Amidine compounds and anticomplement agent comprising same” (Torii & Co., Ltd., priority 1980, dated 1985)
Where two headings read alike, the source gives them in different places.

Assays:
Trypsin = target: T1, Trypsin (Bos taurus, UniProt P00760); experiment: Anti-trypsin activity (hydrolysis of TAME); format: biochemical; settings: for IC50: molar concentration inhibiting 50% of TAME hydrolysis, read-out: Trypsin ID50
T1 sequence (P00760 24-246): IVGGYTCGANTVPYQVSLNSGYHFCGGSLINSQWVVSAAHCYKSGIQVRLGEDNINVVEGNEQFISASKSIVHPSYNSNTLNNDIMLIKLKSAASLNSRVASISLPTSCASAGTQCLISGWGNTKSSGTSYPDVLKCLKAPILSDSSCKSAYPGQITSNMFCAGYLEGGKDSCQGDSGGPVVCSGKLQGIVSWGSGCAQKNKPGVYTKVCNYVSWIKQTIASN
Protocol: (§1) The anti-trypsin, anti-plasmin, anti-kallikrein and anti-thrombin activities were determined according to the method of Muramatsu et al. [M. Muramatsu, T. Onishi, S. Makino, Y. Hayashi and S. Fujii, J. of Biochem., 58, 214 (1965)]. […] The compound No. corresponds to the compound number shown in Examples.

Plasmin = Plasmin (Homo sapiens, UniProt P00747); experiment: Anti-plasmin activity (hydrolysis of TAME); format: biochemical; settings: for IC50: molar concentration inhibiting 50% of TAME hydrolysis, read-out: Plasmin ID50
Sequence of Plasmin (P00747 581-810 limits assumed, species assumed): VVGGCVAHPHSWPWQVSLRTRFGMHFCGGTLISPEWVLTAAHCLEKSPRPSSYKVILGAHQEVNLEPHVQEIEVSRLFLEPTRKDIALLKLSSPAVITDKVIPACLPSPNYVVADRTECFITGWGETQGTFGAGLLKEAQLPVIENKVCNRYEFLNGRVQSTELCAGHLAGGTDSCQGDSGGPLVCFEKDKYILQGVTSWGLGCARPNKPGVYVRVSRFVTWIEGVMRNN
Sequence of Plasmin (P00747 97-580 partner limits assumed, species assumed): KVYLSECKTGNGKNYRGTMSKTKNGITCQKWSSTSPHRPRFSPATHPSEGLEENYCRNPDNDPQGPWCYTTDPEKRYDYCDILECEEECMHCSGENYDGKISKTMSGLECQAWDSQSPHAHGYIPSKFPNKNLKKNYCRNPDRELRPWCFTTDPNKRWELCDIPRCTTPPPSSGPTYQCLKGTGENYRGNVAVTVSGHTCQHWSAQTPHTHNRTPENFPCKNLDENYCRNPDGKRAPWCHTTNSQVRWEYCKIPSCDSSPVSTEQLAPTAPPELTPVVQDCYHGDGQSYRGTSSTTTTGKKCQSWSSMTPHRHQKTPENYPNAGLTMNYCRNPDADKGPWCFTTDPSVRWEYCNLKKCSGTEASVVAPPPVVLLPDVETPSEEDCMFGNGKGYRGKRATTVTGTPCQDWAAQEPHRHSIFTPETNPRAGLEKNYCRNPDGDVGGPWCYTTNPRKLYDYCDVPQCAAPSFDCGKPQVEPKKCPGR
Protocol: as §1

Thrombin = Thrombin (Homo sapiens, UniProt P00734); experiment: biochemical; settings: for inhibition at 10 µM: at 1×10^-5 M, read-out: Thrombin percentage inhibition; for IC50: molar concentration inhibiting 50% of TAME hydrolysis, read-out: Thrombin ID50
Protocol: (§2) The anti-trypsin, anti-plasmin, anti-kallikrein and anti-thrombin activities were determined according to the method of Muramatsu et al. [M. Muramatsu, T. Onishi, S. Makino, Y. Hayashi and S. Fujii, J. of Biochem., 58, 214 (1965)]. The data summarized in Table 1 are expressed in terms of molar concentration (ID50) of the test compound which inhibits 50% of the activity of each enzyme to hydrolyze TAME (tosylalginine methyl ester). The compound No. corresponds to the compound number shown in Examples.

Kallikrein [1] = experiment: Anti-kallikrein activity (hydrolysis of TAME); format: biochemical; settings: at 1×10^-5 M
C1s = target: T2, C1s (Homo sapiens, UniProt P09871); experiment: biochemical
T2 sequence (P09871 438-688 limits assumed): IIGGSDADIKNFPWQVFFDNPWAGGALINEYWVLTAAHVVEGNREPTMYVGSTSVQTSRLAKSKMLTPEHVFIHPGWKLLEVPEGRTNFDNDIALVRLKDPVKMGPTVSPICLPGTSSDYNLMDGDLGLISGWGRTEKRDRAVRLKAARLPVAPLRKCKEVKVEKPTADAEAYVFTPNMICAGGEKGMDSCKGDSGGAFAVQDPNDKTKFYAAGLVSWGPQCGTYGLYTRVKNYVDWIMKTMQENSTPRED
T2 sequence (P09871 16-437 partner limits assumed): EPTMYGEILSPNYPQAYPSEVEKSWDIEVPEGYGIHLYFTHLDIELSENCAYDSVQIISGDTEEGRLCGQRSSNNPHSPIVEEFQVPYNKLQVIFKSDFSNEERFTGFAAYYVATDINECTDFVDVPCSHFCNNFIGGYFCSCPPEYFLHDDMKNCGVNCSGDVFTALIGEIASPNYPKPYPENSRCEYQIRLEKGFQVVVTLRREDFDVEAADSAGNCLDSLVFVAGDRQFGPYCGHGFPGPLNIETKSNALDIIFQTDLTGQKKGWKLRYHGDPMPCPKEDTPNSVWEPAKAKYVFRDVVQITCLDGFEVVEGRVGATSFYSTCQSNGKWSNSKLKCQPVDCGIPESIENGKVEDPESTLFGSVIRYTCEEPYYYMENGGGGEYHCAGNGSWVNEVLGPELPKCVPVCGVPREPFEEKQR
Protocol: The anti-Cl esterase (Clr, Cls) activity was determined according to the method of Okamura et al. [K. Okamura, M. Muramatsu and S. Fujii, Biochem. Biophys. […] The figures in Table 2 have the following meanings:
Cls: Molar concentration of the test compound which inhibits 50% of the ability of Cls to hydrolyse ATEE (acetyltyrosin ethyl ester).

[2] = system: complement mediated hemolysis; experiment: Inhibition of complement mediated hemolysis; format: cell-based
Protocol: The principle of this method is based on the fact that hemolysis is caused by the activation of complement, when the latter is added to a complex (immune complex) of erythrocytes and the antibody thereof. The degree of hemolysis varies in proportion to the amount of complement added. Therefore, when a known amount of complement admixed with a C1 esterase inhibitor is used, the hemolysis must be suppressed in proportion to the inhibitory activity.

Kallikrein [3] = experiment: Anti-kallikrein activity (hydrolysis of TAME); format: biochemical; settings: molar concentration inhibiting 50% of TAME hydrolysis; read-out: Kallikrein ID50
Protocol: as §2

C1r = target: T3, C1r (Homo sapiens, UniProt P00736); experiment: Anti-C1 esterase (C1r) activity (hydrolysis of AAME); format: biochemical; settings: for IC50: AAME hydrolysis, read-out: Anti-C1 activity, C1r ID50; for inhibition at 10 µM: at 1×10^-5 M, read-out: Anti-C1 activity, C1r percent inhibition
T3 sequence (P00736 464-705 limits assumed): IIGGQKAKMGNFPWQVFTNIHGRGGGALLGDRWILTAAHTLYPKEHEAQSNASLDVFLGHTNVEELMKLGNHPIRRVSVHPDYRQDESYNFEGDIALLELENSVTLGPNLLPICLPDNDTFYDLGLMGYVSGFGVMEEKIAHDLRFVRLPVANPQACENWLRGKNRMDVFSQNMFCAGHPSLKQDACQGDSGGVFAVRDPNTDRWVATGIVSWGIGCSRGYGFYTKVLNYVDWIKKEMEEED
T3 sequence (P00736 18-463 partner limits assumed): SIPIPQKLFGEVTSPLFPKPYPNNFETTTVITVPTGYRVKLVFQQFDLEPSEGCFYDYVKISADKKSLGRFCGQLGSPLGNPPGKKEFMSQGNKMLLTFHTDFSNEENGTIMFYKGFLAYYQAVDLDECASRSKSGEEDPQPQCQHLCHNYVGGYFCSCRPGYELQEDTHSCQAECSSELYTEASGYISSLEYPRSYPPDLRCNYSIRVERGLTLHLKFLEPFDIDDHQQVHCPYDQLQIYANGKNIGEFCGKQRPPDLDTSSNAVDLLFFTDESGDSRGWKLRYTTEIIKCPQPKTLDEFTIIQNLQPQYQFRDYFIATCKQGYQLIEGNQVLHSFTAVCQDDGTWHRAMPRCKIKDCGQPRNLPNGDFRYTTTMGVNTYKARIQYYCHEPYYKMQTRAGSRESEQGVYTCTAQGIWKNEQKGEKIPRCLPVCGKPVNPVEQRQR
Protocol: The anti-Cl esterase ([…]) activity was determined according to the method of Okamura et al. [K. Okamura, M. Muramatsu and S. Fujii, Biochem. Biophys.

[4] = ATEE hydrolysis, read-out: Anti-C1 activity, C1s ID50

Compound | IC50 (Trypsin) [µM] | inhibition at 10 µM (Plasmin; at 1×10^-5 M, read-out: Plasmin percentage inhibition) [%] | inhibition at 10 µM (Thrombin) [%] | Kallikrein percentage inhibition (Kallikrein [1]) [%] | IC50 (Plasmin) [µM] | IC50 (Thrombin) [µM] | IC50 (C1s) [µM] | Inhibition of complement mediated hemolysis (%) ([2]; 1 × 10^-4) | Inhibition of complement mediated hemolysis (%) ([2]; 1 × 10^-5) | Inhibition of complement mediated hemolysis (%) ([2]; 1 × 10^-6) | Inhibition of complement mediated hemolysis (%) ([2]; 1 × 10^-7) | IC50 (Kallikrein [3]) [µM] | IC50 (C1r) [µM] | IC50 (C1s; [4]) [µM] | inhibition at 10 µM (Trypsin; at 1×10^-5 M, read-out: Trypsin percentage inhibition) [%] | inhibition at 10 µM (C1r) [%]
N=C(N)c1ccc2cc(OC(=O)c3ccc(OCc4ccccc4)cc3)ccc2c1 [Compound 9] | 0.04 | 48 | 20 | 19 | – | – | – | – | – | – | – | – | – | – | – | –
N=C(N)c1ccc2cc(OC(=O)c3ccc(F)cc3)ccc2c1 [Compound 15] | 3 | – | – | 38 | 1 | 2 | 0.3 | 98 | 89 | 23 | 2 | – | – | – | – | –
N=C(N)c1ccc2cc(OC(=O)c3ccc(S(N)(=O)=O)cc3)ccc2c1 [Compound 29] | 10 | – | – | 42 | 2 | 2 | – | – | – | – | – | – | – | – | – | –
N=C(N)c1ccc2cc(OC(=O)c3ccc(C=O)cc3)ccc2c1 [Compound 31] | 4 | – | – | – | 0.4 | 0.3 | – | 98 | 99 | 92 | 76 | > 10 | 2 | 3 | – | –
COc1ccc(CCC(=O)Oc2ccc3cc(C(=N)N)ccc3c2)cc1OC [Compound 49] | 2 | – | 17 | 29 | 4 | – | – | – | – | – | – | – | – | – | – | –
N=C(N)Nc1ccc(CCC(=O)Oc2ccc3cc(C(=N)N)ccc3c2)cc1 [Compound 52] | – | – | – | – | > 10 | > 10 | – | 48 | 15 | 6 | 14 | > 10 | > 10 | > 10 | 33 | –
N=C(N)c1ccc2cc(OC(=O)C=Cc3ccccc3)ccc2c1 [Compound 57, 6-amidino-2-naphthyl cinnamate] | 5 | – | – | – | 3 | 10 | – | – | 80 | 24 | 23 | 50 | 30 | 3 | – | –
N=C(N)c1ccc2cc(OC(=O)C=Cc3ccc(N)cc3)ccc2c1 [Compound 63, 6-amidino-2-naphthyl 4-aminocinnamate] | 2 | – | – | – | 8 | > 10 | – | 73 | 37 | 26 | 42 | 4 | – | 0.4 | – | 15
N=C(N)Nc1ccc(C=CC(=O)Oc2ccc3cc(C(=N)N)ccc3c2)cc1 [Compound 64, 6-amidino-2-naphthyl 4-guanidinocinnamate] | 2 | – | – | – | 10 | > 10 | – | – | 39 | 17 | 19 | 4 | – | 3 | – | 14
N=C(N)c1ccc2cc(OC(=O)C=Cc3cccc(C(F)(F)F)c3)ccc2c1 [Compound 66] | 6 | – | 21 | – | 0.5 | – | – | 60 | 6 | 1 | 1 | > 10 | 6 | 4 | – | –
COc1ccccc1OCC(=O)Oc1ccc2cc(C(=N)N)ccc2c1 [Compound 68] | > 10 | – | – | – | > 10 | 10 | – | 91 | 4 | 0 | 0 | > 10 | > 10 | > 10 | – | –
